{"source": "patent US20210087232A1", "about": "“D-ENANTIOMERIC PEPTIDES FOR ANTI-INFLAMMATORY TREATMENT OF AMYOTROPIC LATERAL SCLEROSIS (ALS) AND OTHER DISEASES DRIVEN BY NEURO-INFLAMMATION” (FORSCHUNGSZENTRUM JUELICH GMBH, priority 2018, published 2021)", "tested_on": "transgenic ALS mice (tg G93R SOD1 mice)", "experiment": "Treatment studies in transgenic ALS mice: behavioral and motor tests (open field, SHIRPA, pole, hind-leg grip strength, rotarod, hind-leg spread) and histological analyses", "type": "in vivo", "settings": "two treatment studies", "method": "To analyze the anti-inflammatory effect of RD2RD2 as a potential therapeutic for treating ALS, two treatment studies were carried out in transgenic ALS mice (tg G93R SOD1 mice).", "note": "Where no end group is shown, it is not given here. [ ]: non-standard residue; d: D form."}
{"substance": "ptlhthnrrrrrptlhthnrrrrr ([dP][dT][dL][dH][dT][dH][dN][dR][dR][dR][dR][dR][dP][dT][dL][dH][dT][dH][dN][dR][dR][dR][dR][dR]) [RD2RD2]", "values": [{"measurement": "disease onset", "setting": "behavioral and motor tests", "result": "delays disease onset"}, {"measurement": "disease progression", "setting": "behavioral and motor tests", "result": "slows disease progression"}, {"measurement": "inflammatory reactions", "setting": "histological analyses", "result": "reduces inflammatory reactions"}]}
